Experimental data from patent publication US6476065B2, “Discalamide compounds and their use as anti-proliferative agents” (priority 2000, dated 2002).

What was measured:
[1] = system: A549 human lung adenocarcinoma cell line; test: A549 cytotoxicity (antiproliferative) MTT assay; format: cell-based; conditions: A549 human lung adenocarcinoma cells, 72 hours exposure
Protocol: (§1) Compounds were analyzed as to their effects on proliferation of A549 human lung adenocarcinoma and P388 murine leukemia cell lines. P388 cells were obtained from Dr. R. Camalier, National Cancer Institute, Bethesda, Md., and A549 cells were obtained from American Type Culture Collection, Rockville, Md. All cell lines were maintained in Roswell Park Memorial Institute (RPMI) medium 1640 supplemented with 100 U/ml penicillin, […], 60 […], 18 mM HEPES, 0.05 mg/ml gentamicin (Life Technologies, Gaithersburg, Md.) and 10% fetal bovine serum and cultured in plastic tissue culture flasks at 37° C. in humidified air containing 5% CO2. Stock cultures of P388 cells were subcultured 1:20 in fresh tissue culture medium (TCM) every 2 to 3 days. Stock cultures of A549 cells were subcultured 1:10 every 3 to 4 days.
(§2) To assess the antiproliferative effects of agents against P388 cells, 200 μl cultures (96-well tissue culture plates, Nunc, Denmark) were established at 2×10^4 cells/ml in TCM or TCM containing the test agent at 0.03-5.0 μg/ml. After 48 hours exposure, P388 cells were enumerated using 3-[4,5-dimethylthiazol-2-yl]-2,5-diphenyltetrazolium bromide (MTT) as described in the literature (Alley, M. D. et al. [1988] Cancer Res. 48:589). A549 cells were enumerated in the same manner using 200 μl cultures established at 3×10^4 cells/ml and exposing the cultures to the test agents for 72 hours. The results were expressed as percent inhibition compared to the negative (no drug) control. Positive drug controls of varying dilutions of 5-fluorouracil and adriamycin (Sigma Chemical Co., St. Louis, Mo.) were included to monitor drug sensitivity of the cell line.
(§3) To quantitate the effects of compounds on cell proliferation and resulting IC50 values, 75 μl of warm growth media containing 5 mg/ml MTT is added to each well, cultures returned to the incubator, and left undisturbed for 3 hours. To spectrophotometrically quantitate formation of reduced formazan, plates are centrifuged (500×g, 10 minutes), culture fluids removed by aspiration, and 200 μl of acidified isopropanol (2 ml concentrated HC1/liter isopropanol) added per well. The absorbance of the resulting solutions is measured in a plate reader (Tecan Spectra SLT; TECAN U.S., Research Triangle Park, NC) at 570 nm with a 650 nm reference filter. The absorbance of tests wells is divided by the absorbance of drug-free wells, and the concentration of agent that results in 50% of the absorbance of untreated cultures (IC50) is determined by linear regression of logit-transformed data (Finney, D. J. [1978] Statistical Method in Biological Assay, third ed., pp.316-348, Charles Griffin Co., London). A linear relationship between tumor cell number and formazan production has been routinely observed over the range of cell densities observed in these experiments. The two standard drug controls (indicated above) are included in each assay as a check to monitor the drug sensitivity of each of the cell lines and IC50 values are determined for each drug-cell combination.

[2] = system: P388 murine leukemia cell line; test: P388 cytotoxicity (antiproliferative) MTT assay; format: cell-based; conditions: P388 murine leukemia cells, 48 hours exposure
Protocol: as §1, §2, §3

[3] = system: NCI in vitro tumor cell line panel (approximately 60 cell lines); test: National Cancer Institute's in vitro tumor cell line panel; format: cell-based, human
Excerpt: Discalamide A was additionally evaluated for its anti-proliferative effects utilizing the National Cancer Institute's in vitro tumor cell line panel. The results of these analyses are shown in the mean graphs presented as FIG. 3. The data are presented using known and accepted measurements of “lethal concentration-50” (LC50) where 50% of the cells are killed.

Row | Molecule | IC50 [1] [nM] | IC50 [2] [nM] | effectiveness according to LC50 measurements for the NCI cell lines ([3]; HL-60(TB), K562, COLO 205, HCC-2998, SF-295, SNB-19, LOX IMVI, MALME-3M, M14, SK-MEL-2, SK-MEL-28, SK-MEL-5, UACC-257, CAKI-1, HS578T, MDA-MB-231/ATCC) | selective cytotoxicity by LC50 mean graphs (number of cell lines) ([3]; of approximately 60 cell lines tested, bars to the right of the midline, FIG. 3) [cell lines] | IC50 ([2]; Mus musculus) [nM]
1 | Discalamide B [2GP311 (Discalamide B)] | 3.2 | 7.3 | – | – | –
2 | COc1cc2c(cc1O)CCN[C@]21CS[C@@H]2c3c(OC(C)=O)c(C)c4c(c3[C@H](COC1=O)N1[C@@H]2[C@H]2c3c(cc(C)c(OC)c3O)C[C@@H]([C@@H]1O)N2C)OCO4 [Ecteinascidin 743] | – | 1.7 | – | – | –
3 | C=C(CCC(C)C)COC(=O)[C@H](O)C/C=C\C[C@@H]1O[C@@H]2/C=C/C/C=C/C(C)=C\[C@H]3O[C@@H](C/C=C/C=C/C(=O)O[C@H](C2)[C@@]1(C)CO)C[C@H](O)[C@H]3C [Lasonolide A] | 57 | 2.8 | – | – | –
4 | Discalamide A methylester [2GP313 (Discalamide A-methylester)] | 0.8 | 0.3 | – | – | –
5 | C=C1C[C@](OC)([C@H](O)C(=O)N[C@H]2OCO[C@H]3[C@@H]2O[C@H](C[C@H](O)CCC/C=C/C=C/C=C/C(=O)N[C@@H](CCCNC(=N)N)C(=O)O)C(C)(C)[C@@H]3OC)O[C@H](C)[C@@H]1C [Onnamide A] | 170 | 2.4 | – | – | –
6 | Ecteinascidin 729 | – | 1.2 | – | – | –
7 | C=C1C[C@](OC)([C@H](O)C(=O)N[C@H]2OCO[C@H]3[C@@H]2O[C@H](CC(/C=C/C/C=C/C=C/C(=O)O)OC)C(C)(C)[C@@H]3OC)O[C@H](C)[C@@H]1C (some centres unmarked) [2GP111 (Discalamide A), Discalamide A] | 1.5 | 0.1 | particularly effective | 16 | –
8 | C=C/C=C\[C@H](C)[C@H](OC(N)=O)[C@@H](C)[C@H](O)[C@@H](C)C/C(C)=C\[C@H](C)[C@@H](O)[C@@H](C)/C=C\[C@@H](O)C[C@@H]1OC(=O)[C@H](C)[C@@H](O)[C@H]1C [Discodermolide] | 25 | – | – | – | 55
9 | C=C1C[C@](OC)([C@H](O)C(=O)N[C@H]2OCO[C@H]3[C@@H]2O[C@H](C[C@H](O)CO)C(C)(C)[C@@H]3OC)O[C@H](C)[C@@H]1C [Mycalamide A] | 3.6 | 5.2 | – | – | –
10 | C=C1C[C@](OC)([C@H](O)C(=O)N[C@H]2OCO[C@H]3[C@@H]2O[C@H](C[C@@H](CO)OC)C(C)(C)[C@@H]3OC)O[C@H](C)[C@@H]1C [Mycalamide B] | 0.6 | 1.3 | – | – | –
